Experimental data: US6723897B2, “Methods for controlling gibberellin levels” (Monsanto Technology, LLC, priority 1998, dated 2004)

How the values were obtained:
[1] = test system: constitutively GA-deficient transgenic dwarf soybean line 719; assay: Field trial of seed coating application rates, GA-deficient soybean; assay type: in vivo, Glycine max; conditions: for 719 Height, cm, Heavy soil / 719 Height, cm, Light soil / No. 719 Emerged, Heavy soil / No. 719 Emerged, Light soil / No. 719 Not Rescued, Heavy soil / No. 719 Not Rescued, Light soil: seed coating
Description: GA3, GA3-3-acetate, GA5, GA9, and GA12 are evaluated in further field trials. […] The objectives of these tests are: 1) to determine if seed coatings, as compared to imbibition, of GA compounds facilitate rescue of constitutively GA-deficient transgenic dwarf soybeans (transgenic lines 719−2 plus 719+17) without causing elongation of wild-type soybeans (line A4922), and 2) to determine the seed treatment rate ranges for each of the selected GA compounds that would provide rescue of constitutively GA-deficient transgenic dwarf soybeans (transgenic lines 719−2 plus 719+17) without causing elongation of wild-type soybeans (line A4922).
Seeds are treated with GA3, GA5, GA9, GA12, and GA3-3-acetate at rates of 0, 0.1, 1, 10, and 100 μg/seed. These GA compounds are applied to the seeds using a Hege 11 seed treater (Hans-Ulrich Hege GmbH & Co., Waldenburg, Germany); 100% acetone is used as the carrier solvent. The amount of liquid introduced into the seed treater is six fluid ounces/100 lbs seed rate. In addition, GA12 is tested at 50 μg/seed. The untreated control (UTC) consisted of dry, untreated seeds. Seeds of constitutively GA-deficient transgenic dwarf soybean line 719 and wild-type A4922 are sown in both light and heavy soil. The planting depth is 0.5 to 1 inch (1.27 to 2.54 cm); watering is via drip irrigation. The experiment is carried out in three repetitions, using 25 seeds/plot (one five foot (152.4 cm) long row) for line 719, and 75 seeds/plot (two eight foot (243.8 cm) rows) for line A4922. Observations included total emergence, number of dwarfs not rescued, uniformity in plant height, average plant height, visual notes, and digital photos.
In all the experiments reported in Tables 17-24, treatments are replicated three times in a randomized block design. Data are analyzed using LSD (least significant difference) 0.05 probability using the PRM 5.0 Statistical Analysis Program (SAS Institute, North Carolina).

[2] = Half-lives of 14C-labelled GA compounds in planta; conditions: ^14C-labelled compound on seed of Asgrow 3237 soybeans
Description: ^14C-radiolabelled compounds are obtained from Lew Mander (Australian National University). ^14C-GA3 is dissolved in water:ethanol, 80:20, v/v; ^14C-GA9 and ^14C-GA12 are dissolved in 100% ethanol. Seeds of Asgrow 3237 soybeans are treated separately with solutions of each of the ^14C-radiolabelled compounds (1.7-6.8 μg; 10-40 ppm; 111,000-2,000,000 dpm/seed) by placing one to four μl of the dosing solution directly on the seed coat (^14C-GA3, GA9, and GA12), or on the hilum portion of the seed (^14C-GA3). After evaporation of the carrier solvent (approx. one hour), the treated seed is planted in containers containing approximately 30 gm of Metromix-350, and transferred to a growth chamber. Plants are grown under a 12 hour light/12 hour dark regime at 92° F. (33° C.)and 75% humidity. The pattern of uptake and translocation of ^14C-radioactivity in treated seed is monitored up to 12 days past initial treatment. For most experiments, three replicate plants are harvested at one hour after treatment, one day after treatment (DAT), two DAT, three DAT, six or seven DAT, and 12 DAT. […] The level of ^14C-radioactivity in different plant parts is determined by extraction of plant tissues with aqueous methanol and scintillation counting. The extent of metabolism of the ^14C-labelled GA compounds in planta is determined by HPLC analysis of plant extracts. […]
The general extraction procedure consisted of blending the plant parts in a high speed polytron tissue homogenizer for 1-5 minutes with 10-20 ml of ice-cold methanol:water, 80:20, v/v, followed by vacuum filtration through a Whatman glass fiber filter. The filter cake is re-extracted as necessary using the procedure described above until an insignificant amount of radioactivity is removed. Prior to combining the extracts from each sample, aliquots are weighed and analyzed by liquid scintillation counting (LSC) to determine the amount of extracted radioactivity in each extract. Aliquots of the air-dried filter cakes are combusted and analyzed by LSC in order to determine the amount of non-extracted radioactivity. […]

[3] = Distribution of 14C label in soybean plant parts after seed treatment
Description: ^14C-radiolabelled compounds are obtained from Lew Mander (Australian National University). ^14C-GA3 is dissolved in water:ethanol, 80:20, v/v; ^14C-GA9 and ^14C-GA12 are dissolved in 100% ethanol. Seeds of Asgrow 3237 soybeans are treated separately with solutions of each of the ^14C-radiolabelled compounds (1.7-6.8 μg; 10-40 ppm; 111,000-2,000,000 dpm/seed) by placing one to four μl of the dosing solution directly on the seed coat (^14C-GA3, GA9, and GA12), or on the hilum portion of the seed (^14C-GA3). After evaporation of the carrier solvent (approx. one hour), the treated seed is planted in containers containing approximately 30 gm of Metromix-350, and transferred to a growth chamber. Plants are grown under a 12 hour light/12 hour dark regime at 92° F. (33° C.)and 75% humidity. The pattern of uptake and translocation of ^14C-radioactivity in treated seed is monitored up to 12 days past initial treatment. For most experiments, three replicate plants are harvested at one hour after treatment, one day after treatment (DAT), two DAT, three DAT, six or seven DAT, and 12 DAT. At the time of each harvest, plants are divided into leaves, epicotyl, cotyledon, hypocotyl, and roots. The level of ^14C-radioactivity in different plant parts is determined by extraction of plant tissues with aqueous methanol and scintillation counting. The extent of metabolism of the ^14C-labelled GA compounds in planta is determined by HPLC analysis of plant extracts. The details are as follows.
The general extraction procedure consisted of blending the plant parts in a high speed polytron tissue homogenizer for 1-5 minutes with 10-20 ml of ice-cold methanol:water, 80:20, v/v, followed by vacuum filtration through a Whatman glass fiber filter. The filter cake is re-extracted as necessary using the procedure described above until an insignificant amount of radioactivity is removed. Prior to combining the extracts from each sample, aliquots are weighed and analyzed by liquid scintillation counting (LSC) to determine the amount of extracted radioactivity in each extract. Aliquots of the air-dried filter cakes are combusted and analyzed by LSC in order to determine the amount of non-extracted radioactivity. The extracts are combined and, when necessary, concentrated by rotary evaporation at a bath temperature of less than 35° C. to a small volume for analysis by HPLC to determine the extent of metabolism of the ^14C-labelled GA compounds in planta.

[4] = test system: AX5/antisense CPScc soybean line 46 (R2); assay: Hilum seed treatment of epicotyl-intensive GA-deficient soybean, seedling height (FIG. 42); assay type: in vivo, Glycine max; conditions: 8 DAP
Description: These studies are performed on soybean plants engineered to express their GA-deficient phenotype throughout the life cycle via the use of the constitutive FMV promoter (line 719, FMV/antisense CPScc). In contrast to the constitutive FMV promoter, the peak activity of the AX5 promoter is developmentally restricted to the soybean seedling axis (epicotyl) three to five days after the start of imbibition, with limited expression beyond the seedling stage of development. Soybean lines transformed with the […] cassette therefore display an epicotyl-intensive dwarf phenotype. In these lines, inhibition of the hypocotyl is modest; most of the total height reduction in these plants is due to shortening of the epicotyl. Rescue of […] soybean plants therefore presents different technical challenges from those required for rescue of constitutively GA-deficient transgenic dwarf soybean lines containing the […] construct. […] Seed from both lines is produced from greenhouse-grown plants. […] If multiple applications are made to seeds, the previous application is allowed to dry before a subsequent application is made. […] (29° C.) day and 75° F. night (24° C.). Pots are watered as necessary by overhead hand watering. Hypocotyl and epicotyl measurements are made for each plant at various stages of plant growth. […] The results are shown in FIG. 42, where the error bar represents +/-two times the standard error of the mean (n=12-15). […] The upper dashed horizontal line represents the total height of untreated wild-type […] soybeans. Measurements are made 8 days after planting.

C=C1C[C@]23C[C@H]1CC[C@H]2[C@@]12CCC[C@@](C)(C(=O)O1)[C@H]2[C@@H]3C(=O)O [GA9]
719 Height, cm, Heavy soil ([1]; 10 μg compound per seed): 4.0 d-i cm
719 Height, cm, Light soil ([1]; 10 μg compound per seed): 5.0 efg cm
No. 719 Emerged, Heavy soil ([1]; 10 μg compound per seed): 16.3 b-e
No. 719 Emerged, Light soil ([1]; 10 μg compound per seed): 21.7 ab
No. 719 Not Rescued, Heavy soil ([1]; 10 μg compound per seed): 0.7 ef
No. 719 Not Rescued, Light soil ([1]; 10 μg compound per seed): 0.3
719 Height, cm, Heavy soil ([1]; 100 μg compound per seed): 8.3 ab cm
719 Height, cm, Light soil ([1]; 100 μg compound per seed): 10.3 cd cm
No. 719 Emerged, Heavy soil ([1]; 100 μg compound per seed): 20.3 a-d
No. 719 Emerged, Light soil ([1]; 100 μg compound per seed): 19.0 a-e
No. 719 Not Rescued, Heavy soil ([1]; 100 μg compound per seed): 0 f
No. 719 Not Rescued, Light soil ([1]; 100 μg compound per seed): 0
appearance of line 719 seedlings ([1]; 0.1 and 1 μg per seed): appeared unusually abnormal
Half-life (days) in planta [2]: <1 days
^14C Label Distribution (% of dose), Cotyledon ([3]; 3 DAP): 60 % of dose
^14C Label Distribution (% of dose), Hypocotyl ([3]; 3 DAP): 6.8 % of dose
^14C Label Distribution (% of dose), Root ([3]; 3 DAP): 1.3 % of dose
^14C Label Distribution (% of dose), Cotyledon ([3]; 12 DAP): 54 % of dose
^14C Label Distribution (% of dose), Epicotyl ([3]; 12 DAP): 0.1 % of dose
^14C Label Distribution (% of dose), Hypocotyl ([3]; 12 DAP): 1.0 % of dose
^14C Label Distribution (% of dose), Leaves ([3]; 12 DAP): 0.3 % of dose
^14C Label Distribution (% of dose), Root ([3]; 12 DAP): 1.0 % of dose
activity relative to GA3, GA3-3-acetate and GA5 [4]: approximately ten times less active
effect on line 46 total height [4]: rescued AX5/asCPScc soybean line 46 total height, with some hypocotyl over-elongation

C=C1C[C@]23C[C@H]1CC[C@H]2[C@]1(C)CCC[C@@](C)(C(=O)O)[C@H]1[C@@H]3C(=O)O [GA12]
719 Height, cm, Heavy soil ([1]; 0.1 μg compound per seed): 4.0 d-i cm
719 Height, cm, Light soil ([1]; 0.1 μg compound per seed): 4.0 g·cm
No. 719 Emerged, Heavy soil ([1]; 0.1 μg compound per seed): 20.7 a-d
No. 719 Emerged, Light soil ([1]; 0.1 μg compound per seed): 22.3 a
No. 719 Not Rescued, Heavy soil ([1]; 0.1 μg compound per seed): 4.3 bc
No. 719 Not Rescued, Light soil ([1]; 0.1 μg compound per seed): 6.3 b
719 Height, cm, Heavy soil ([1]; 1 μg compound per seed): 3.3 e-i cm
719 Height, cm, Light soil ([1]; 1 μg compound per seed): 4.0 g·cm
No. 719 Emerged, Heavy soil ([1]; 1 μg compound per seed): 21.0 abc
No. 719 Emerged, Light soil ([1]; 1 μg compound per seed): 22.0 a
No. 719 Not Rescued, Heavy soil ([1]; 1 μg compound per seed): 5.3 ab
No. 719 Not Rescued, Light soil ([1]; 1 μg compound per seed): 3.7 cd
719 Height, cm, Heavy soil ([1]; 10 μg compound per seed): 3.0 f-i cm
719 Height, cm, Light soil ([1]; 10 μg compound per seed): 2.3 cm·h
No. 719 Emerged, Heavy soil ([1]; 10 μg compound per seed): 22.3 ab
No. 719 Emerged, Light soil ([1]; 10 μg compound per seed): 21.0 ab
No. 719 Not Rescued, Heavy soil ([1]; 10 μg compound per seed): 1.7 def
No. 719 Not Rescued, Light soil ([1]; 10 μg compound per seed): 1.7 efg
719 Height, cm, Heavy soil ([1]; 50 μg compound per seed): 3.3 e-i cm
719 Height, cm, Light soil ([1]; 50 μg compound per seed): 2.3 cm·h
No. 719 Emerged, Heavy soil ([1]; 50 μg compound per seed): 23.7 a
No. 719 Emerged, Light soil ([1]; 50 μg compound per seed): 22.3 a
No. 719 Not Rescued, Heavy soil ([1]; 50 μg compound per seed): 5.0 bc
No. 719 Not Rescued, Light soil ([1]; 50 μg compound per seed): 3.0 cde
719 Height, cm, Heavy soil ([1]; 100 μg compound per seed): 2.7 ghi cm
719 Height, cm, Light soil ([1]; 100 μg compound per seed): 2.0 cm·h
No. 719 Emerged, Heavy soil ([1]; 100 μg compound per seed): 20.7 a-d
No. 719 Emerged, Light soil ([1]; 100 μg compound per seed): 21.3 ab
No. 719 Not Rescued, Heavy soil ([1]; 100 μg compound per seed): 2.0 de
No. 719 Not Rescued, Light soil ([1]; 100 μg compound per seed): 1
Half-life (days) in planta [2]: <1 days
^14C Label Distribution (% of dose), Cotyledon ([3]; 3 DAP): 55 % of dose
^14C Label Distribution (% of dose), Hypocotyl ([3]; 3 DAP): 1.7 % of dose
^14C Label Distribution (% of dose), Root ([3]; 3 DAP): 3.5 % of dose
^14C Label Distribution (% of dose), Cotyledon ([3]; 12 DAP): 45 % of dose
^14C Label Distribution (% of dose), Epicotyl ([3]; 12 DAP): 0.2 % of dose
^14C Label Distribution (% of dose), Hypocotyl ([3]; 12 DAP): 0.9 % of dose
^14C Label Distribution (% of dose), Leaves ([3]; 12 DAP): 0.7 % of dose
^14C Label Distribution (% of dose), Root ([3]; 12 DAP): 3.0 % of dose
effect on line 46 total height [4]: reduced plant height
line 46 seedling height ([4]; concentrations up to 40 μg/seed): did not increase line 46 seedling height
